According to patent publication US8735140B2, “Preservation and composition of bioprocess algae for production of lipids, seedstock, and feed” (Kuehnle AgroSystems, Inc., priority 2008, dated 2014):

System: algae strains KAS503, KAS633 and KAS635
Experiment: Sorbitol treatment prior to alginate embedding, cell recovery after preservation
Type: cell-based
Procedure: In one specific embodiment, cells are treated with trehalose solution at various concentrations and left overnight. Cells are centrifuged the next day to remove the trehalose solution, and then re-suspended in sterile 0.5M D-sorbitol (Fisher Scientific […]) dissolved in salt or fresh-water medium as required by specific algae species. Cells are left to stand for 2 hours with mild agitation. After 2 hours, cells are centrifuged again to remove the 0.5M sorbitol solution and re-suspended in fresh or salt-water medium. Cells are counted after the re-suspension. Cell viability is determined by comparing the cell growth in control set with the experimental set. Specifically, cell counts are performed on all samples. The averaged density value (in cells per ml) for all the cultures after treatment is defined as “rejuvenation cell count.” In some samples, the percent recovery of cells immediately after storage is also determined. The formulae are illustrated as follows: Growth=(rejuvenation cell count)/(initial cell count) Cell recovery after storage=(cell density after storage)/(initial cell density), with controls set at 100% cell recovery. Viability after storage and rejuvenation in nutrient medium=(Growth of treatment)/(Growth of control)×100%, with controls set at 100% viability

Question: How did the “Cell recovery after preservation” value turn out when `OC[C@@H](O)[C@@H](O)[C@H](O)[C@@H](O)CO` [sorbitol, D-sorbitol] was run?
Answer: The value was “increases cell recovery”.
